Measured values reported in patent publication US20030211469A1, “Inhibiting hepatitis c virus processing and replication” (priority 2003, published 2003).
Where two headings read alike, the source gives them in different places.

What was measured:
HCV NS2/3 (810-1615BK) [1] = target: T1, HCV NS2/3 (810-1615BK) (Hepatitis C virus genotype 1b, UniProt P26663); type: biochemical, Hepatitis C virus (BK strain); conditions: for NS2/3 Processed (% of Control): 5 mM final concentration of nucleoside analog; for inhibition at the maximum concentration tested: 5 mM; for inhibition at the maximum concentration tested / IC50: residual ATP approximately 1 mM; for IC50: titration, read-out: IC50, inhibition of NS2/3 processing
T1 construct: HCV residues 810-1615 of the BK strain; made in house; host or cells: in vitro translation in rabbit reticulocyte lysate from plasmid pCITE 810-1615BK
Method: (§1) HCV residues 810-1615 of the BK strain, which includes all of NS2 and most of NS3 (termed 810-1615BK), was produced from the plasmid pCITE 810-1615BK (a gift from Dr. Nicola La Monica) and has been described previously by Pieroni, et al., (1997) J. Virol. 71, 6373. Following plasmid linearization with BLP1, RNA was transcribed with T7 RNA polymerase and purified. Protein translation was in rabbit reticulocyte lysate, 30° C. for 40 minutes using [^35S]-methionine as a label. Translation was then blocked by the addition of cycloheximide (250 μM final) and the samples were immediately frozen on dry ice.
(§2) Prior to processing experiments, an aliquot of translated NS2/3 was thawed on ice. Processing of 810-1615BK was initiated by addition to room temperature solutions containing Triton X-100 at 1%, as described by Pieroni, et al., (1997) J. Virol. 71, 6373. The distribution of [^35S]-labeled proteins on dried gels was determined with a Phosphorimager (Molecular Dynamics). Product bands were quantified and expressed as a proportion of total signal in the gel lane so that variations in gel lane loading were normalized.

[2] = target: T2, NS2/3 fusion protein Ubi-849-1207J-BLA (UniProt P26662+P62593, S1165A); assay: Processing of NS2/3 fusion protein Ubi-849-1207J-BLA in reticulocyte lysate; type: biochemical, Hepatitis C virus (J strain)
T2 construct: NS2/3 residues 849-1207 (J strain); ubiquitin (N, cleaved yes); made in house; host or cells: in vitro translation in rabbit reticulocyte lysate from plasmid pM3A
Description: The plasmid pM3A, derived from pCDNA (Invitrogen), encodes a fusion protein termed Ubi-849-1207J-BLA that contains ubiquitin at its N-terminus, followed by NS2/3 residues 849-1207 (J strain) linked to bacterial TEM-1 β-lactamase at the C-terminus. […] RNA synthesis for this construct is driven by the T7 promoter, and RNA was separately prepared for translation as in Example 1. Upon translation in rabbit reticulocyte lysate, the ubiquitin is immediately cleaved from the protein by cellular ubiquitin hydrolases. (Hochstrasser, (1996) Annual Review of Genetics 30, 405.)
The cleavable linkage (SEQ. ID. NO. 1) is present as ubiquitin↓ArgHisGlySerGluPhe-NS2/3. […] Translations were limited to 30 minutes for that reason. Quantification of processing at room temperature was by comparison of samples prepared immediately after addition of cycloheximide with later time samples.

[3] = tested on: ubiquitin-ubiquitin-ubiquitin-NS2/3-β-lactamase in Jurkat cells; assay: Cell-based NS2/3 cleavage assay, Jurkat cells, β-lactamase/CCF2 readout; set-up: species or system Hepatitis C virus; conditions: for IC50: read-out: IC50, NS2/3 cleavage in cells, 5 hours treatment, 460 nm/530 nm ratio
Method: Inhibitor treatment was for 5 hours, followed by addition of cycloheximide to stop protein synthesis (30 minutes) and subsequent addition of the β-lactamase substrate, CCF2. After 2 hours, β-lactamase activity was quantified by fluorescence readings (460 nm/530 nm ratio). Lower 460 nm/530 nm ratios indicate inhibition of NS2/3 cleavage.
Through the use of a neomycin-selectable transfection vector, stable expression of NS2/3 in Jurkat cells was obtained. The plasmid pUbBla3X-NS2/3-3A conferring neomycin (G418) resistance, expresses a fusion of the NS2/3 protein with 3 ubiquitin domains appended to the N-terminus and β-lactamase at the C-terminus. The complete uncleaved protein has an in vivo half-life estimated to be 5-10 minutes.
The plasmid pUbBla3X NS2/3-3A was transfected into Jurlcat cells. The CMV promoter-driven ORF of the plasmid encodes a 91 kDa protein, ubiquitin-ubiquitin-ubiquitin-NS2/3-β-lactamase, with the C-termini of the 3 ubiquitin domains rendered non-cleaveable to ubiquitin-C-terminal hydrolases (ubiquitin C-terminal sequence ArgLeuArgGlyVal, SEQ. ID. NO. 2). The NS2/3 region includes HCV residues 849-1207. The β-lactamase domain is TEM-1 from E. coli. Expression of the P-lactamase moiety is readily detected with the fluorogenic, cell-penneant substrate, CCF2. (Zlokarnik, et al., (1998) Scienice 279, 84.) Transfectants were sorted by FACS using treatment with CCF2 to indicate β-lactamase expression (Zlokarnik, et al., (1998) Science 279, 84), and individual clones were grown under G418 selection. The full fusion protein expressed is highly unstable to ubiquitin-directed proteosomal degradation due to its ubiquitin N-terminal tag, while the C-terminal product of NS2/3 cleavage, NS3-β-lactamase, is stable for hours. Thus, build-up in the cells of O-lactamase activity, as indicated by CCF2 hydrolysis (high 460 nm1530 nm ratio) is indicative of successful NS2/3 cleavage, and suppression of P-lactamase activity indicates NS2/3 inhibition.
(See, Grakoui, et al., (1993) P.N.A.S. USA 90, 10583, Selby, et al., (1993) J. Gen. Virol. 74, 1103, fijikata, et al., (1993) J. Virol. 67, 4665, Santolini, et al., (1995) J. Viol. 69, 7461, D'Souza, et al., (1994) J. Gen. Virol. 75, 3469, and Pieroni, et al., (1997) J. Virol. 71, 6373.) NS2/3 self-cleavage separates the destabilizing ubiquitin degradation signal at the N-terminus from the NS3-O-lactamase C-terminal product, thus stabilizing the β-lactamase activity within the cell.

HCV NS2/3 (810-1615BK) [4] = type: biochemical, Hepatitis C virus (BK strain); conditions: for NS2/3 Processed (% of Control): present during synthesis and processing, 30 minutes
Method: as §1, §2
NS2/3 processing reactions were performed with 810-1615BK. […] (Darke, et al., (1999) J. Biol. Chem. 274, 34511.) Inhibitors were dissolved in DMSO and protected from light. Dilutions were in DMSO, such that the final concentration of DMSO was 2% for in vitro experiments and 1% for cell-based assays. […] (Hu, et al., (1996) P.N.A.S. USA 93, 1060; Thulasiraman, et al., (1996) Biochemistry 35, 13443 (1996), Schneider, et al., (1996) P.N.A.S. USA 93, 14536.)
to the data, where a is the minimal level of fractional activity (tending to 0), a+b is the maximal level (tending to 1), x is the concentration of inhibitor, c is the IC50 and d is a slope coefficient. […] Values given are the average of two determinations.

[5] = titration, 810-1615BK, average of two determinations

SMILES	NS2/3 Processed (% of Control) (HCV NS2/3 (810-1615BK) [1])	inhibition at the maximum concentration tested (HCV NS2/3 (810-1615BK) [1]) [%]	IC50 (HCV NS2/3 (810-1615BK) [1]) [µM]	inhibition at the highest concentrations tested [3]	IC50 [3] [µM]	other results
Nc1ncnc2c1ncn2[C@@H]1O[C@H](COP(=O)(O)OP(=O)(O)NP(=O)(O)O)[C@@H](O)[C@H]1O [AMP-PNP]	40 % of Control	60	4000	–	–	–
Nc1ncnc2c1ncn2[C@@H]1O[C@H](COP(=O)(O)OP(=O)(O)OP(O)(O)=S)[C@@H](O)[C@H]1O [ATPγS]	24 % of Control	77	2000	–	–	Inhibition of NS2/3 processing, J-strain fusion protein [2]: Inhibition by ATPγS was also observed
COC1=C2C[C@@H](C)C[C@H](OC)[C@H](O)[C@@H](C)/C=C(\C)[C@H](OC(N)=O)[C@@H](OC)/C=C\C=C(/C)C(=O)NC(=CC1=O)C2=O [Geldanamycin]	–	–	–	nearly complete	0.04	–
CO[C@H]1[C@@H](OC)C[C@H](C)[C@@H](OC)C2=CC(=O)C=C(NC(=O)/C(C)=C/C=C\[C@H](OC)[C@@H](OC(N)=O)/C(C)=C/[C@@H]1C)C2=O [Herbimycin A, herbimycin A]	–	–	–	–	–	NS2/3 Processed (% of Control) (HCV NS2/3 (810-1615BK) [4]; 1 μM): 38 % of Control; NS2/3 Processed (% of Control) (HCV NS2/3 (810-1615BK) [4]; 10 μM): 22 % of Control
C[C@@H]1C[C@H]2O[C@@H]2/C=C\C=C\C(=O)Cc2c(Cl)c(O)cc(O)c2C(=O)O1 [Radicicol]	–	–	–	nearly complete	0.013	EC50 (HCV NS2/3 (810-1615BK) [4]; [5]): 0.22 ± 0.12 µM; Maximum Inhibition (%) (HCV NS2/3 (810-1615BK) [4]; [5]): 51%
